Measurements reported in patent publication US6664231B1, “Anti-fungal peptides” (priority 1993, dated 2003).
Converted amounts (≈) assume the structure as drawn. “And” between values parts separate entries of the source, which are not always exact repeats. Identical values can stand only once. Like-named read-outs stand apart in the source and are kept apart here.

How the values were obtained:
[1] = test system: polyene-resistant (ATCC 38247), 5-fluorocytosine-resistant (ATCC 44373), azole-resistant (ATCC 62342), ketoconazole-resistant (ATCC 64124) C. albicans; test: Fungicidal activity on commercially-available drug-resistant Candida strains; format: cell-based, Candida albicans; settings: ATCC 38247, 44373, 62342, 64124
Experimental: Further experiments were performed to determine the anti-fungal activity of Domain III derived peptides on commercially-available strains of Candida considered resistant to other anti-fungal agents: polyene-resistant C. albicans (ATCC Accession No. 38247), 5-fluorocytosine-resistant C. albicans (ATCC No. 44373), azole-resistant C. albicans (ATCC No. 62342), and ketoconazole-resistant C. albicans (ATCC No. 64124).

[2] = test system: C. albicans (SLU-1 strain); test: Survival of mice systemically infected with Candida albicans; format: in vivo, mouse; settings: 1.24×10^5 C. albicans i.v.; 3 doses i.v. (Day 0, 2, 4); 10 mg/kg XMP.36, 5 mg/kg XMP.97, 10 mg/kg XMP.102, 1 mg/kg amphotericin B; FIG. 4
Experimental: Groups of 15 male DBA/2J mice at age 6-8 weeks (Jackson Laboratory, Bar Harbor, Me.) were inoculated with 1.24×10^5 C. albicans (SLU-1 strain as described in Example 2) by intravenous injection into the tail vein. Cells were prepared for animal injection as follows. A single colony was selected and used to inoculate a 5 mL tube of Sabouraud dextrose broth. Incubation was at 30° C. with shaking to allow aeration for a period of 15-18 hours. Four mL of the overnight culture were added to 100 mL of fresh Sabouraud dextrose broth (1:25 dilution) and incubated for 4 hours. The 100 mL culture was pelleted at 1,500×g for 5 minutes. Cells were washed twice by adding 20 mL D-PBS, vortexing and re-centrifuging. Cells were collected in one tube and a sample is diluted 1:10 to be measured by OD570 (1 OD unit=3×10^7 CFU/mL). The cells were diluted to the desired dose in D-PBS and kept at 4° C. until used. Doses were confirmed by performing serial ten-fold dilutions and plating 50 μl per dilution on Sabouraud dextrose agar. Colonies were counted the following day after overnight incubation at 37° C. A […] culture yielded approximately 1×10^9 CFU/mL.
Immediately after fungal challenge, the mice were intravenously injected via the tail vein with a 0.1 mL volume of 10 mg/kg XMP.36, 5 mg/kg XMP.97, 10 mg/kg XMP.102, 1 mg/kg amphotericin B (Sigma, St. Louis, Mo.), or phosphate buffered saline (PBS) as a control. Treatment with the same amounts of peptides, amphotericin B or PBS was repeated at Day 2 and Day 4 (except that the second dose of XMP.36 was given at a dose of 5 mg/kg). Mice were monitored twice daily for mortality until termination of the study at Day 28. […] In FIG. 4, the symbol “X” represents survival after treatment with amphotericin B; open squares, treatment with XMP.97; open circles, treatment with XMP.36; open diamonds, treatment with XMP.102; and open triangles, treatment with buffer. Statistical significance was evaluated using the Lifetest Survival Curve analysis. [Lawless, Statistical Models and Methods for Lifetime Data, John Wiley & Sons, New York (1982).] The duration and almost linear decline in survival is analogous to human opportunistic candidiasis.
In additional 3-dose studies, groups of 15 mice were injected with a fungal challenge of 0.5×10^5 Candida cells, prepared for injection as described above, followed by treatment at Day 0, Day 2 and Day 5 with a 0.1 mL volume of 10 mg/kg XMP.127, 5 mg/kg XMP.13, 5 mg/kg XMP.37, 1 mg/kg amphotericin B, or PBS as a control. […] In FIG. 5, the symbol “X” represents survival after treatment with amphotericin B; open circles, treatment with XMP.127; filled triangles, treatment with buffer; open squares, treatment with XMP.37; open triangles, treatment with XMP.13.
Further studies to determine the effectiveness of anti-fungal peptides were performed at an increased dosing regimen (6 doses rather than 3 doses as described above). Groups of 9 week-old male DBA/2J mice were inoculated with concentrations of 2.7×10^5 Candida cells (prepared as described above) by intravenous injection in the tail vein. Immediately after fungal challenge, the mice were treated with a 0.1 mL volume of 10 mg/kg XMP.284, 1 mg/kg amphotericin B or PBS as a control at Day 0, Day 2, Day 4, Day 7, Day 9 and Day 11. All amphotericin B-treated animals were protected.
Additional 6-dose experiments were conducted as described above, using inocula of 0.5-3.0×10^5 Candida cells and using 0.01, 0.05, 0.1, 0.5, 1.0 or 5.0 mg/kg doses of peptide.

[3] = test system: C. albicans (CA-1, Strain SLU-1); test: Radial diffusion assay; format: cell-based, Candida albicans; settings: pmoles of peptide added to well to achieve a 30 mm^2 zone, PROBIT analysis, crude or purified (P′) peptide
In short: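 Peptides, serially diluted 2-fold in D-PBS (top ~1 mg/mL), diffused 3 h at 37° C into pH 7.4 phosphate-buffered agarose seeded with 1×10^6 CFU/mL yeast, before overnight growth under a 6% Sabouraud overlayer. Net inhibition zones measured after Coomassie staining; PROBIT fit of log pmol vs area gave pmol for 30 mm^2.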

[4] = test system: Candida parapsilosis ATCC 22019; test: microbe, parasite or virus in culture; format: cell-based; settings: Lodderomyces parapsilosis, ATCC22019; read-out: Minimum Fungicidal Concentration, Candida parapsilosis ATCC 22019
Experimental: (§1) The anti-fungal activity of Domain III derived peptides was evaluated against a variety of fungal species, including species of Candida. Cryptococcus, Fusarium, Trichophyton, and Aspergillus, by an additional assay protocol utilizing Alamar Blue. Alamar Blue is an indicator dye formulated to measure quantitatively the proliferation of a variety of human or animal cells, bacteria, or fungi. It consists of an oxidation-reduction (REDOX) indicator that yields a colorimetric change in response to metabolic activity. For these experiments, species of Candida and Cryptococcus were grown in Sabouraud's dextrose broth (SDB) overnight. Strains of filamentous fungi (Aspergilius, Fusanum, Trichophyton) were obtained by irrigation of a confluent culture from a petri dish. Cells were washed and adjusted to a concentration of 5.0×10^3/mL in fresh SDB. […] Controls included amphotericin B, fluconazole, ketoconazole and griseofulvin. Antifungal drugs were also diluted in the same manner. Assays were performed in 96-well microuiter plates. […] The wells to be plated were determined by OD590 readings. The lowest concentration of peptide which maintained the blue color (or OD reading) of the blank was chosen along with the next two higher concentrations. Plates were allowed to grow for 18-48 hours depending on the rate of growth of each fungus. Minimal fungicidal activity (MFC) was determined as a 99.9% killing of the starting inoculum.

[5] = test system: Aspergillus niger ATCC 16404; test: microbe, parasite or virus in culture; format: cell-based; settings: Aspergillus niger, ATCC16404; read-out: Minimum Fungicidal Concentration, Aspergillus niger ATCC 16404
Experimental: as §1

[6] = test system: Cryptococcus neoformans ATCC 13690; test: microbe, parasite or virus in culture; format: cell-based; settings: Cryptococcus neoformans, ATCC13690; read-out: Minimum Fungicidal Concentration, Cryptococcus neoformans ATCC 13690
Experimental: as §1

[7] = test system: Fusarium solani ATCC 36031; test: microbe, parasite or virus in culture; format: cell-based; settings: Fusarium solani, ATCC36031; read-out: Minimum Fungicidal Concentration, Fusarium solani ATCC 36031
Experimental: as §1

[8] = test system: Candida albicans (SLU-1 and ATCC strains); test: microbe, parasite or virus in culture; format: cell-based; settings: Candida albicans
Experimental: as §1

Aspergillus ATCC 13073 = test: microbe, parasite or virus in culture; format: cell-based; settings: Aspergillus, ATCC13073; read-out: Minimum Fungicidal Concentration, Aspergillus ATCC 13073
Experimental: as §1

[9] = test system: Candida glabrata ATCC 2001; test: microbe, parasite or virus in culture; format: cell-based; settings: Nakaseomyces glabratus, ATCC2001; read-out: Minimum Fungicidal Concentration, Candida glabrata ATCC 2001
Experimental: as §1

[10] = test system: Trychophyton rubrum ATCC 28188; test: organism not typed; format: cell-based; settings: read-out: Minimum Fungicidal Concentration, Trychophyton rubrum ATCC 28188
Experimental: as §1

Candida albicans = test: Radial diffusion assay, Candida species (Table 2); format: cell-based; settings: higher effective concentration of agarose than Table 1
Candida krusei = test: Radial diffusion assay, Candida species (Table 2); format: cell-based
Experimental: (§2) The anti-fungal activity of Domain III derived peptides was also evaluated in vitro against a variety of fungal species, including Candida glabrata, Candida krusei, Candida lusitaniae, Candida parapsilosis, and Candida tropicalis. For these experiments, one colony of each of the above-listed Candida strains was picked from a Sabouraud's dextrose agar (SDA) plate and inoculated into 5 mL of Sabouraud's dextrose broth (SDB, 2% dextrose and 1% neopeptone) or, for C. krusei, Yeast Malt broth (YM, Becton Dickenson, Cockeysville, Md., cat no. BL 11405) in 12 mL polyproplyene snap-cap tubes. The tube cultures were incubated overnight with shaking at 37° C.
(§3) Cultures were harvested when the OD570 of a 1:10 dilution was greater than or equal to the following values: 0.083 for Candida glabrata, 0.154 for Candida krusei, 0.117 for Candida lusitaniae, 0.076 for Candida parapsilosis, and 0.192 for Candida tropicalis. Cells were centrifuged for 7 minutes in an Eppendorf microfuge at 3,000 rpm (about 1,500 g). The cell pellet was resuspended in 1 mL PBS and approximately 1×10^7 cells in about 0.5 mL were added to 10 mL of cooled underlay agar (3% SBD, 1% agarose, 0.02% Tween 20, 10 mM sodium phosphate buffer, pH 7.4 at about 45° C.). The suspension was poured into square petri plates, allowed to solidify, and wells cut as described above.
(§4) Peptides were two-fold serially diluted with D-PBS from about 20 μL of a starting concentration of approximately 1 mg/mL. Five μL of peptide dilution were added per well and allowed to diffuse for at least about 30 minutes into the agar at […] (to allow complete diffusion). Then 10 mL of molten overlayer agarose (6% SDB, 1% agarose, 10 mM sodium phosphate buffer, pH 7.4 at about 45° C.) were added and the plates were incubated inverted at […] overnight. Plates were stained with a dilute Coomassie solution, inhibition zones were measured with calipers and net areas were calculated, then converted to pmole values by PROBIT analysis.

Candida lusitaniae = test: Radial diffusion assay, Candida species (Table 2); format: cell-based
Experimental: as §2, §3, §4

Candida parapsilosis = test: Radial diffusion assay, Candida species (Table 2); format: cell-based
Experimental: as §2, §3, §4

Candida tropicalis = test: Radial diffusion assay, Candida species (Table 2); format: cell-based
Experimental: as §2, §3, §4

Candida glabrata = test: Radial diffusion assay, Candida species (Table 2); format: cell-based
Experimental: as §2, §3, §4

[11] = test system: Candida albicans SLU-1 strain; test: Serum stability, anti-fungal activity after serum incubation by radial diffusion bioassay; format: in vitro ADME, rat or human serum
In short: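 Anti-fungal activity against C. albicans SLU-1 was measured by radial diffusion on peptides recovered from serum. Recovery: 1 mg/mL peptide in equal volume of rat or human serum at 37° C, sampled at 0–4 h, C-18 extraction, HPLC, sequencing and ESI/MS.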

[12] = ATCC10231, strain ATCC 10231, read-out: Minimum Fungicidal Concentration, Candida albicans ATCC 10231
[13] = ATCC18840, strain ATCC 18840, read-out: Minimum Fungicidal Concentration, Candida albicans ATCC 18840
[14] = ATCC26555, strain ATCC 26555, read-out: Minimum Fungicidal Concentration, Candida albicans ATCC 26555
[15] = ATCC44808, strain ATCC 44808, read-out: Minimum Fungicidal Concentration, Candida albicans ATCC 44808
[16] = ATCC90028, strain ATCC 90028, read-out: Minimum Fungicidal Concentration, Candida albicans ATCC 90028

Molecule	Fungicidal activity on resistant strains [1]	C. albicans pmol/30 mm^2 zone [3]	MFC [4] [µg/mL]	MFC [5] [µg/mL]	MFC [7] [µg/mL]	MFC [8, 12] [µg/mL]	MFC [8, 13] [µg/mL]	MFC [8, 14] [µg/mL]	MFC [8, 15] [µg/mL]	MFC [8, 16] [µg/mL]	MFC [9] [µg/mL]	Anti-fungal activity: pmol/30 mm^2 zone, Candida albicans (Candida albicans)	Anti-fungal activity: pmol/30 mm^2 zone, Candida krusei (Candida krusei)	Anti-fungal activity: pmol/30 mm^2 zone, Candida lusitaniae (Candida lusitaniae)	Anti-fungal activity: pmol/30 mm^2 zone, Candida parapsilosis (Candida parapsilosis)	Anti-fungal activity: pmol/30 mm^2 zone, Candida tropicalis (Candida tropicalis)	Anti-fungal activity: pmol/30 mm^2 zone, Candida glabrata (Candida glabrata)	also measured
H-KSKVGALIQLFHKK-NH2 [XMP.36]	not reduced	197 pmol/30 mm^2 zone and 231 pmol/30 mm^2 zone	–	–	–	–	–	–	–	–	–	–	–	–	–	–	–	mice survived until Day 28 [2]: 33%
OC(Cn1cncn1)(Cn1cncn1)c1ccc(F)cc1F [Fluconazole, fluconazole]	–	–	> 10	> 10	> 10	> 10	> 10	> 10	> 10	> 10	> 10	–	–	–	–	–	–	MFC [6]: > 10 µg/mL; MFC ([8]; strain SLU-1, read-out: Minimum Fungicidal Concentration, Candida albicans SLU-1): > 10 µg/mL; MFC (Aspergillus ATCC 13073): > 50 µg/mL; MFC [10]: > 10 µg/mL
H-KSKVGVLIQLFHKK-NH2 [XMP.166]	not reduced	171 pmol/30 mm^2 zone	–	–	–	–	–	–	–	–	–	>3,079 pmol/30 mm^2 zone	3,240 pmol/30 mm^2 zone	1,133 pmol/30 mm^2 zone	1,199 pmol/30 mm^2 zone	864 pmol/30 mm^2 zone	2,100 pmol/30 mm^2 zone	–
H-HHWLIQLHH-NH2 [XMP.337]	–	b (No detectable activity up to 5 μg/well)	–	–	–	–	–	–	–	–	–	b (No detectable activity up to 5 μg/well)	5,339 pmol/30 mm^2 zone	6,928 pmol/30 mm^2 zone	b (No detectable activity up to 5 μg/well)	b (No detectable activity up to 5 μg/well)	b (No detectable activity up to 5 μg/well)	Activity in Serum t ½ (hr.) [11]: inactive; C. albicans pmol/30 mm^2 zone ([3]; listed as XMP.337P′): >3,350 pmol/30 mm^2 zone
CC(=O)N1CCN(c2ccc(OCC3COC(Cn4ccnc4)(c4ccc(Cl)cc4Cl)O3)cc2)CC1 (stereo not drawn) [Ketoconazole, ketoconazole]	–	–	5 (≈ 9.41 µM)	> 10	> 10	> 10	> 10	> 10	> 10	> 10	> 10	–	–	–	–	–	–	–
